Data as given in patent US11028087B2, “2,6-disubstituted-9-cyclopentyl-9H-purines, use thereof as medicaments, and pharmaceutical compositions” (UNIVERZITA PALACKEHO V OLOMOUCI, priority 2017, dated 2021).

Key:
[1] = tested on: Kasumi-1 (acute myeloid leukemia, KIT mutation Asn822Lys); assay: Calcein AM cytotoxicity assay; format: cell-based; conditions: Homo sapiens; comparative example; Kasumi-1, 72 h; read-out: Influence of compounds on proliferation (72 h), EC50 values (μM) Kasumi-1
Text: (§1) Cytotoxicity of the compounds is the major property determining their anticancer effect in vivo. One of the parameters used, as the basis for cytotoxicity assays, is the integrity of cytoplasmic membrane of viable cells. For example, a microtiter assay, which uses acetomethoxy derivate of calcein (Calcein AM), is widely used for evaluation of cell proliferation and cytotoxicity. This assay is used in drug screening programs and in chemosensitivity testing. Intracellular esterases of viable cells convert calcein AM to green-fluorescent calcein of which signal corresponds to the number of viable cells in the culture.
(§2) We have been using the following cell lines: MV4-11 (acute myeloid leukemia, FLT3-ITD positive), MOLM-13 (acute myeloid leukemia, FLT3-ITD positive), THP-1 (acute myeloid leukemia, wt FLT3), U937 (monocytic leukemia, wt FLT3), EOL-1 (eosinophilic leukaemia, carrying the fusion FIP1L1-PDGFRA), H1703 (non-small cell lung carcinoma, PDGFRA amplification). They were maintained in RPMI-1640 supplemented with 10% fetal bovine serum, penicillin (100 U/ml) and streptomycin (100 μg/ml). Kasumi-1 (acute myeloid leukemia, KIT mutation Asn822Lys) cells were cultivated in RPMI-1640 supplemented with 15% fetal bovine serum, penicillin (100 U/ml) and streptomycin (100 μg/ml). K562 and MCF-7 cell lines were maintained in DMEM supplemented with 10% fetal bovine serum, penicilin (100 U/ml) and streptomycin (100 μg/ml). All cell lines were cultivated at 37° C. in 5% CO2. For cytotoxicity assays, cells were seeded in appropriate densities into 96 well plates and the next day tested compounds were added at various concentrations in triplicates. Three days after drug addition, Calcein AM solution (final concentration 1 μg/ml; Thermo Scientific, USA) was added into each well and incubated for 1 h. After this incubation period, fluorescence of the live cells was measured at 485 nm/538 nm (ex/em) with a Fluoroskan Ascent microplate reader (Labsystems).

K562 = assay: Calcein AM cytotoxicity assay; format: cell-based; conditions: Homo sapiens; comparative example; K562, 72 h; read-out: Influence of compounds on proliferation (72 h), EC50 values (μM) K562
Text: as §1
as §2, with “They were maintained in RPMI-1640 supplemented with 10% fetal bovine serum, penicillin (100 U/ml) and streptomycin (100 μg/ml). Kasumi-1 (acute myeloid leukemia, KIT mutation Asn822Lys) cells were cultivated in RPMI-1640 supplemented with 15% fetal bovine serum, penicillin (100 U/ml) and streptomycin (100 μg/ml).” left out, “h.” for “h. After this incubation period, fluorescence of the live cells was measured at 485 nm/538 nm (ex/em) with a Fluoroskan Ascent microplate reader (Labsystems).”

[2] = tested on: MV4-11 (acute myeloid leukemia, FLT3-ITD positive); assay: Calcein AM cytotoxicity assay; format: cell-based; conditions: Homo sapiens; comparative example; MV4-11, 72 h; read-out: Influence of compounds on proliferation (72 h), EC50 values (μM) MV4-11
Text: as §1
as §2, with “They were maintained in RPMI-1640 supplemented with 10% fetal bovine serum, penicillin (100 U/ml) and streptomycin (100 μg/ml). Kasumi-1 (acute myeloid leukemia, KIT mutation Asn822Lys) cells were cultivated in RPMI-1640 supplemented with 15% fetal bovine serum, penicillin (100 U/ml) and streptomycin (100 μg/ml).” left out, “h.” for “h. After this incubation period, fluorescence of the live cells was measured at 485 nm/538 nm (ex/em) with a Fluoroskan Ascent microplate reader (Labsystems).”

[3] = tested on: MOLM-13 (acute myeloid leukemia, FLT3-ITD positive); assay: Calcein AM cytotoxicity assay; format: cell-based; conditions: Homo sapiens; comparative example; MOLM-13, 72 h; read-out: Influence of compounds on proliferation (72 h), EC50 values (μM) MOLM-13
Text: as §1
as §2, with “They were maintained in RPMI-1640 supplemented with 10% fetal bovine serum, penicillin (100 U/ml) and streptomycin (100 μg/ml). Kasumi-1 (acute myeloid leukemia, KIT mutation Asn822Lys) cells were cultivated in RPMI-1640 supplemented with 15% fetal bovine serum, penicillin (100 U/ml) and streptomycin (100 μg/ml).” left out, “h.” for “h. After this incubation period, fluorescence of the live cells was measured at 485 nm/538 nm (ex/em) with a Fluoroskan Ascent microplate reader (Labsystems).”

CDK2/Cyclin E = biological target: T1, CDK2/Cyclin E (Homo sapiens, UniProt P24941); assay: Kinase inhibition assay with [γ-33P]ATP; format: biochemical; conditions: comparative example; read-out: Influence of compounds on protein kinase inhibition, IC50 values (μM) CDK2
T1 construct: made in house; host or cells: Sf9 insect cells, baculoviral infection
Protocol: (§3) CDK1/Cyclin B and CDK2/Cyclin E kinases were produced in Sf9 insect cells via baculoviral infection and purified on a NiNTA column (Qiagen). CDK5/p35 and CDK7Cyclin H/MAT1, FLT3 WT, FLT3-ITD and FLT3 D835 were purchased from ProQinase GmbH. The kinase reactions were assayed with 1 mg/mL histone H1 (for CDK1, CDK2 and CDK5), (YSPTSPS)2KK peptide (for CDK7) or AGLT substrate (for FLT3) in the presence of 15/15/0.15/1.5/1 μM ATP (for CDK1/CDK2/CDK5/CDK7/FLT3), 0.05 μCi [γ-^33P]ATP and of the test compound in a final volume of 10 μL, all in a reaction buffer (60 mM HEPES-NaOH, pH 7.5, 3 mM MgCl2, 3 mM MnCl2, 3 μM Na-orthovanadate, 1.2 mM DTT, 2.5 μg/50 μl PEG20,000). The reactions were stopped by adding 5 μL of 3% aq H3PO4. Aliquots were spotted onto P-81 phosphocellulose (Whatman), washed 3× with 0.5% aq H3PO4 and finally air-dried.

FLT3-ITD = biological target: T2, FLT3-ITD (Homo sapiens, UniProt P36888); assay: Kinase inhibition assay with [γ-33P]ATP; format: biochemical; conditions: comparative example; read-out: Influence of compounds on protein kinase inhibition, IC50 values (μM) FLT3 ITD
T2 sequence (P36888 1-993): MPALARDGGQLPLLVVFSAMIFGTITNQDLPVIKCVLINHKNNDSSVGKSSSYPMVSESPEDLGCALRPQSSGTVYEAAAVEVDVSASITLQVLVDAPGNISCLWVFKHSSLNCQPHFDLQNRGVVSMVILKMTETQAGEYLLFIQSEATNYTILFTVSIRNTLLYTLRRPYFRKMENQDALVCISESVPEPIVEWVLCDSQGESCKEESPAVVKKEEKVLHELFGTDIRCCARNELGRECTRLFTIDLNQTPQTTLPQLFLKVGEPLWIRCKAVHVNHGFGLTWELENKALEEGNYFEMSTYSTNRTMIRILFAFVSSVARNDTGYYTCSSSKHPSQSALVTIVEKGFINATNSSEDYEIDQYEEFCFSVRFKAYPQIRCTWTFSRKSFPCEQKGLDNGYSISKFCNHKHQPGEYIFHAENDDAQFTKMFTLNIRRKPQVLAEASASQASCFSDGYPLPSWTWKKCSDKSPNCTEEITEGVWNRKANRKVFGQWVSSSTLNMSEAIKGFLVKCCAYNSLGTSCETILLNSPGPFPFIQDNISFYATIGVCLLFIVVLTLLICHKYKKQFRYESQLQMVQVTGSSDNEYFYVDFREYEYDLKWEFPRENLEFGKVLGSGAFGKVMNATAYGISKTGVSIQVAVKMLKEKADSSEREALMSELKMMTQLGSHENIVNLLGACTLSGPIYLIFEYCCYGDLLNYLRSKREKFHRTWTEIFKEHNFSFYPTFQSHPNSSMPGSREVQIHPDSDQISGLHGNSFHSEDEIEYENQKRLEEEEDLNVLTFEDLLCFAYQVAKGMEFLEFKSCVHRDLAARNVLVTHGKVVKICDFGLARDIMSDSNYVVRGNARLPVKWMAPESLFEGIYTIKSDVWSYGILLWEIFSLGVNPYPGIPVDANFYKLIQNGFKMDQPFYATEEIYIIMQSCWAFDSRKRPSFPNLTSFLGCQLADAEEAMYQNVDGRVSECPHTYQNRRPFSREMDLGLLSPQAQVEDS
Protocol: as §3

- IC50 (CDK2/Cyclin E): > 5 µM
- IC50 (FLT3-ITD): 0.759 µM
Structure (SMILES): NC1CCC(Nc2nc(Nc3ccc(CN4CCOCC4)cc3)c3ncn(-c4ccccc4)c3n2)CC1 (stereo not drawn) [Phenyl derivative of compound 264, reference compound]
- EC50 [1]: 0.722 µM
- EC50 (K562): 1.81 µM
- EC50 [2]: 0.648 µM
- EC50 [3]: 0.912 µM
